Where a name gives a salt, the structure may show the parent alone.
Legend:
D2 receptor = test: Binding: displacement of [^3 H] YM-09151-2 (D2 site); conditions: Ligand [^3 H] YM09151-2
Text: (§1) This process for studying specific binding is described Naunyn-Schmiedeberg's Arch. Pharmacol. 329, 333-338, 1985 and Mol. Pharmacol. 21, 301-314, 1982.

5-HT2 receptor = 5-HT2 receptor (Rattus norvegicus, UniProt P14842); test: Binding: displacement of [^3 H] Ketanserine (5-HT2 site); conditions: compared with the reference substances
Chain of 5-HT2 receptor (P14842 whole entry): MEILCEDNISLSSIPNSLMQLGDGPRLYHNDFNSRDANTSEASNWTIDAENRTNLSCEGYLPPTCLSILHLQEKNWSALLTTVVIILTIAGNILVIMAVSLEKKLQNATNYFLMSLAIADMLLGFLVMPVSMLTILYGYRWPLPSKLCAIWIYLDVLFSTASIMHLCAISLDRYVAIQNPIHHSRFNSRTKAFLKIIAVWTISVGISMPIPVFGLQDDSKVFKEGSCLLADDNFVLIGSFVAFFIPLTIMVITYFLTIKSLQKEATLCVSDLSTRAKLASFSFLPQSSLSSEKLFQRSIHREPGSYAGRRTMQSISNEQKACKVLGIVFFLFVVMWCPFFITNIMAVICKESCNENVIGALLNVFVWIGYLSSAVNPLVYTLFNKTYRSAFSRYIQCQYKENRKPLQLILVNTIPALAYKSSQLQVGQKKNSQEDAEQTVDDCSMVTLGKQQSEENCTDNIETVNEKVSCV
Text: as §1

Compound | Ki (D2 receptor) | affinity for the 5-HT2 receptor (in words) (5-HT2 receptor)
CCOc1c(C(=O)N[C@@H]2C[C@H]3CC[C@@H](C2)N3Cc2ccccc2)cc(Br)c2ccccc12 [Example 13, 4-Bromo-1-ethoxy-N-[8-(phenylmethyl)-8-azabicyclo[3.2.1]oct-3-β-yl]-2-naphthalenecarboxamide hydrochloride] | 0.944 nM | –
COc1c(C(=O)N[C@@H]2C[C@H]3CC[C@@H](C2)N3Cc2ccccc2)ccc2ccccc12 [Example 3, 1-Methoxy-N-[8-(phenylmethyl)-8-azabicyclo[3.2.1]oct-3-β-yl]-2-naphthalenecarboxamide] | 0.143 nM | –
CCN1CCCC1CNC(=O)c1cc(S(N)(=O)=O)ccc1OC (stereo not drawn) [Sulpiride] | 4.63 nM | –
COc1c(C(=O)NC2CCN(Cc3ccccc3)CC2)ccc2ccccc12 [Patent EP 539,281 compound] | 3.32 nM | little or no 5-HT2 affinity
COc1cccc(C(=O)N[C@@H]2C[C@H]3CC[C@@H](C2)N3Cc2ccccc2)c1OC [Tropapride] | 0.106 nM | little or no 5-HT2 affinity
COc1c(C(=O)N[C@@H]2C[C@H]3CC[C@@H](C2)N3Cc2ccccc2)cc(Br)c2ccccc12 [Example 4, 4-Bromo-1-methoxy-N-[8-(phenylmethyl)-8-azabicyclo[3.2.1]oct-3-β-yl]-2-naphthalenecarboxamide oxalate] | 0.776 nM | –
COc1c(C(=O)N[C@@H]2C[C@H]3CC[C@@H](C2)N3Cc2ccccc2)cc(Cl)c2ccccc12 [Example 5, 4-Chloro-1-methoxy-N-[8-(phenylmethyl)-8-azabicyclo[3.2.1]oct-3-β-yl)-2-naphthalenecarboxamide hydrochloride] | 0.408 nM | –
